Test results as given in patent publication US11274131B2, “IgM-mediated receptor clustering and cell modulation” (MAYO FOUNDATION FOR MEDICAL EDUCATION AND RESEARCH, priority 2007, dated 2022).
Entries after “also recorded” stand apart in the source; their conditions may differ.

Assays:
human DC = assay: Immunoblot of phosphorylation of signaling intermediates in human DC; assay type: cell-based
Procedure: (§1) FIGS. 2A to 2G are a series of pictures showing that a kinase activated pathway regulates antibody-induced antigen uptake by matured DC. Matured human monocyte-derived DC were treated with the MTAb B7-DC XAb for varying time periods and evaluated for the phosphorylation status of select signaling pathway intermediates by immunoprecipitation with DAP12 (MC457), Syk (4D10), and PLCγ1 (MC490) reactive antibodies followed by western blot analysis using the phosphotyrosine reactive antibody 4G10 as a probe (FIGS. 2A-2C). Samples of the cells blocked with indicated concentration of piceatannol (FIG. 2D) or with […] of piceatannol (FIG. 2E) were analyzed for phosphorylation of Syk (FIG. 2D) and PLCγ1 (FIG. 2E). To investigate the functional importance of these signaling intermediates in the regulation of antigen uptake by matured DC activated with B7-DC XAb, varying concentrations of pharmacologic inhibitors were used to block the activity of p72Syk (piceatannol) and PLCγ1 (U73122) (FIGS. 2F and 2G, respectively). Antigen uptake was assessed by pulsing cultures with FITC-conjugated ovalbumin and measuring intracellular fluorescence 16 hours later in CD11c positive cells by flow cytometry.
In experiments involving assessment of the phosphorylation status of various protein kinases using whole cell lysate, dendritic cells of mouse or human origin or Jurkat cells were stimulated at the indicated times with control antibody or B7-DC XAb, and were lysed on ice for 10 minutes in 1 ml buffer containing 20 mM Tris-HCl, 40 mM NaCl, 5 mM EDTA, 50 mM NaF, 30 mM Na4P2O7, 0.1% BSA, 1 mM Na3VO4, 1 mM PMSF, 5 μg/ml aprotinin, 10 μg/ml leupeptin, and 1% Triton X-100. Cellular debris was removed by centrifugation at 20,800×g for 5 minutes at 4° C. and the supernatant was used in SDS-PAGE analysis for phosphorylated tyrosine proteins. For immunoprecipitation, antibody against mouse Syk (4D10) or PLC yl (MC490) or DAP12 (MC457) at 10 μg per sample was bound to protein A-Sepharose beads at 4° C. for 2 hours under constant rotation. Supernatants from cell lysate after stimulation were incubated with antibody coupled beads for 2 hours at 4° C. with constant rotation. […] Tyrosine-phosphorylated proteins were detected using the anti-phosphotyrosine specific antibody, 4G10, followed by goat anti-mouse IgG coupled to Horse Radish Peroxidase (Santa Cruz Biotechnology) and the SuperSignal detection system (Pierce Biotechnology, Rockford, Ill.). […] The supernatants were resolved by SDS-PAGE, probed with anti-mouse TREM-2 antibody (237920) and detected by Goat-anti mouse antibody coupled to HRP, or probed with affinity purified anti-mouse CD40 (1C10) and detected by Goat-anti mouse antibody coupled to HRP.

[1] = system: matured human monocyte-derived DC; assay: Antigen uptake assay, matured human DC; assay type: cell-based; conditions: matured human DC, OVA-FITC
Procedure: as §1
Human DC were generated from peripheral blood CD14^+ monocytes by incubation in GM-CSF and IL-4 for five days. […] All cultures were pulsed with OVA-FITC at the time of treatment with IgM antibodies, and […] OVA-FITC was assessed 24 hours later by flow cytometry.
FIGS. 4A and 4B are a series of plots showing the effects of kinase inhibitors on OVA-FITC uptake by matured human DC, as determined by flow cytometry. […] All cells were pulsed with OVA-FITC at the time of treatment with IgM antibody, and CD11c+ cells were analyzed for OVA-FITC uptake 24 hours later by flow cytometry. […]
Antigen uptake experiments were carried out as described previously (Radhakrishnan et al. (2005) Proc. Natl. Acad. Sci. U.S.A. 102:11438-11443). […] The matured cells were incubated with ovalbumin labeled with FITC or APC and control antibody or B7-DC XAb for two hours, washed and analyzed by FACSCALIBUR™ (Becton Dickinson). […]

## B7-DC XAb: human monoclonal IgM from a Waldenstrom's macroglobulinemia patient that binds and cross-links B7-DC on DC
Human DC; human DC
  phosphorylation of PLCγ1: concomitant with the phosphorylation of PLCγ1
Human DC; human DC treated with antibody
  phosphorylation of cellular proteins: induced as early as one minute after treatment
Human DC; human DC, cross-linking B7-DC
  phosphorylation of DAP12: rapidly phosphorylated
Human DC; human DC, immunoprecipitated Syk
  phosphorylation of Syk: revealed phosphorylation of the protein tyrosine kinase
[1]
  antigen uptake by matured DC: regaining the ability to take up antigen; also recorded: take up ovalbumin when activated
